Experiments:
Btk = Btk (Homo sapiens (Human), UniProt Q06187); assay: Btk acellular kinase assay (TR-FRET); format: biochemical; settings: relative to compound 4
[1] = system: BCR-activated calcium flux in Ramos cells; assay: BCR-induced calcium flux assay in Ramos cells; settings: Homo sapiens, read-out: Ramos Cell Ca Flux IC50
DHL-6 cells = assay: DHL-6 cell growth (Alamar Blue assay); format: cell-based

Chain of Btk (Q06187 whole entry): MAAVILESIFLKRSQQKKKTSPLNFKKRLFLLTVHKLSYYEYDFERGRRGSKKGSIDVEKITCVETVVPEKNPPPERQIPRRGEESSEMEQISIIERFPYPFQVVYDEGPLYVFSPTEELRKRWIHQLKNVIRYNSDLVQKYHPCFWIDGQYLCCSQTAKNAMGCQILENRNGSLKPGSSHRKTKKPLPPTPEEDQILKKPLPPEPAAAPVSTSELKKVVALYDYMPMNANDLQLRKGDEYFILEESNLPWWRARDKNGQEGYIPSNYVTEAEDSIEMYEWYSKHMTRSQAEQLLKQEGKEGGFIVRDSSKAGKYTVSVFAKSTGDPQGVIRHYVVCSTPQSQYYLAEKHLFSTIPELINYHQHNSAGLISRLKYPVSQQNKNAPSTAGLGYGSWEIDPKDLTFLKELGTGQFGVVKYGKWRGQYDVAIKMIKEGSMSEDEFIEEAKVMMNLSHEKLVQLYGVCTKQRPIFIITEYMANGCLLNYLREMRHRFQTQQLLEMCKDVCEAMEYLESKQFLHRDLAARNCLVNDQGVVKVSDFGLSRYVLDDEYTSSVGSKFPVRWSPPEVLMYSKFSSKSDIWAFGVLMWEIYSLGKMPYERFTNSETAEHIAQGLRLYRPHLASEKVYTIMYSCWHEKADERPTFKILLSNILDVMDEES

| SMILES | IC50 [1] [nM] | also measured |
| --- | --- | --- |
| C/C=C/C(=O)N1CCCC(n2nc(-c3ccc(Oc4ccccc4)cc3)c3c(N)ncnc32)C1 (stereo not drawn) [Compound 5, (E)-1-(3-(4-amino-3-(4-phenoxyphenyl)-1H-pyrazolo[3,4-d]pyrimidin-1-yl)piperidin-1-yl)but-2-en-1-one] | 89 | Fold less potent than compound 4 (Btk) (Btk): 28 fold |
| Nc1ncnc2c1c(-c1ccc(Oc3ccccc3)cc1)nn2C1CCCN(C(=O)CCl)C1 (stereo not drawn) [Compound 7] | 9 | – |
| CN(C)C/C=C/C(=O)N1CCC[C@@H](n2nc(-c3ccc(Oc4ccccc4)cc3)c3c(N)ncnc32)C1 [Compound 15, (E)-1-(3-(4-amino-3-(4-phenoxyphenyl)-1H-pyrazolo[3,4-d]pyrimidin-1-yl)piperidin-1-yl)-4-(dimethylamino)but-2-en-1-one] | 36 | Growth of DHL-6 cells (DHL-6 cells; 24 h treatment): inhibits growth; Growth of DHL-6 cells (DHL-6 cells; 48 h treatment): inhibits growth |
| C=CC(=O)N1CCC(n2nc(-c3ccc(Oc4ccccc4)cc3)c3c(N)ncnc32)CC1 [Compound 9, 1-(4-(4-amino-3-(4-phenoxyphenyl)-1H-pyrazolo[3,4-d]pyrimidin-1-yl)piperidin-1-yl)prop-2-en-1-one] | 48 | – |
| C=CC(=O)N[C@H]1CC[C@@H](n2nc(-c3ccc(Oc4ccccc4)cc3)c3c(N)ncnc32)CC1 [Compound 10, N-((1s,4s)-4-(4-amino-3-(4-phenoxyphenyl)-1H-pyrazolo[3,4-d]pyrimidin-1-yl)cyclohexyl)acrylamide] | 3 | – |
| C=CC(=O)N1CC[C@H](n2nc(-c3ccc(Oc4ccccc4)cc3)c3c(N)ncnc32)C1 [Compound 12, 1-((S)-3-(4-amino-3-(4-phenoxyphenyl)-1H-pyrazolo[3,4-d]pyrimidin-1-yl)pyrrolidin-1-yl)prop-2-en-1-one] | 90 | – |
| C=CC(=O)N1CC[C@@H](n2nc(-c3ccc(Oc4ccccc4)cc3)c3c(N)ncnc32)C1 [Compound 11, 1-((R)-3-(4-amino-3-(4-phenoxyphenyl)-1H-pyrazolo[3,4-d]pyrimidin-1-yl)pyrrolidin-1-yl)prop-2-en-1-one] | 24 | – |
| C#CC(=O)N1CCCC(n2nc(-c3ccc(Oc4ccccc4)cc3)c3c(N)ncnc32)C1 (stereo not drawn) [Compound 8, 1-(3-(4-amino-3-(4-phenoxyphenyl)-1H-pyrazolo[3,4-d]pyrimidin-1-yl)piperidin-1-yl)prop-2-yn-1-one] | 9 | – |
| C=CS(=O)(=O)N1CCCC(n2nc(-c3ccc(Oc4ccccc4)cc3)c3c(N)ncnc32)C1 (stereo not drawn) [Compound 6, 1-(3-(4-amino-3-(4-phenoxyphenyl)-1H-pyrazolo[3,4-d]pyrimidin-1-yl)piperidin-1-yl)sulfonylethene] | 92 | – |
